{"source": "patent US20110230536A1", "about": "“PHENYLPYRAZOLE INHIBITORS OF STORE OPERATED CALCIUM RELEASE” (CalciMedica, Inc., priority 2008, published 2011)", "key": {"JR251 or RBL cells": {"test_system": "JR251 or RBL cells", "test": "Fluorescence-based assay of store-operated calcium entry (JR251 or RBL cells)", "assay_type": "cell-based", "conditions": "in either JR251 or RBL cells, or both", "experimental": "Fluorescence-based assays are used for screening the compounds described herein, such as compounds of Formulas (I) and (II) which modulate intracellular calcium. […]\nB. Fluorescence-based Assay of Store-Operated Calcium Entry in RBL-2H3 Cells.\nRBL-2H3 cells are obtained from ATCC and maintained in complete medium with 10% FBS at 37° C./6% CO2.\nThe day prior to performing the assay, RBL-2H3 cells are plated in 50 μL of complete medium in a 384 well plate. Cells are grown at 37° C./6% CO2 overnight and grow to 50-60% confluence by the next day. On the assay day, 1.5 μM Fluo-4-AM dye (Invitrogen) in complete medium is added and incubated for 1 hour at RT. Cells are washed twice in Ca^2+-free HBSS buffer and 35 μL Ca^2+-free HBSS buffer is added to each well. 10 μL of a test compound prepared in a Ca^2+-free HBSS solution at 4.5× of the desired concentration is added to a well and incubated for 5 minutes at RT. 10 μL of thapsigargin prepared in a Ca^2+-free HBSS solution at 5.5× of the desired concentration (5.5 uM) is added to each well and incubated for an additional 25 minutes. The initial baseline fluorescence signal is measured with a FLIPR^384 (Molecular Devices) plate reader. 5 μL of 12× calcium in HBSS (12 mM) is added and changes in cellular fluorescence are measured with the FLIPR^384 plate reader. In each well, the change in the fluorescent signal as a function of time due to calcium entry into the cell is determined by calculating the difference between the fluorescent signal measured 7 seconds after calcium addition and the initial baseline fluorescence signal at time zero (t=0). This parameter is designated Upslope. The IC50 value is calculated as the concentration at which 50% of the Upslope is inhibited. […]"}, "[1]": {"test_system": "Jurkat cells and colon cancer cells", "conditions": "cited from earlier work"}, "[2]": {"test_system": "Jurkat cells and colon cancer cells", "conditions": "cited from earlier work", "remark": "listed apart in the source"}, "[3]": {"biological_target": "STIM1 and Orai1 in HEK293 cells (Homo sapiens, UniProt Q96D31)", "sequence (Q96D31 whole entry)": "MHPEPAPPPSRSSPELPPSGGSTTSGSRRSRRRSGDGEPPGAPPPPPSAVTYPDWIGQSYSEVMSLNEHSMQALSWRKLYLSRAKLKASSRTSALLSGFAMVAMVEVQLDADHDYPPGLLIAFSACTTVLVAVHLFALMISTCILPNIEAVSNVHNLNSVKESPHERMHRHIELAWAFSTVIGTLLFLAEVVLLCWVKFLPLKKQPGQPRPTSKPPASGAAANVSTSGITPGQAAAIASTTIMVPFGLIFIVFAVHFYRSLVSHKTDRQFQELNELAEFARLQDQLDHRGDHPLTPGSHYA", "conditions": "HEK293 cells coexpressing STIM1 and Orai1; cited from earlier work"}}, "data": [{"smiles": "COc1cc(C(=O)Nc2ccc(Cl)cc2)ccc1-n1nc(C(F)(F)F)cc1C", "note": "[N-(4-chlorophenyl)-3-methoxy-4-(5-methyl-3-(trifluoromethyl)-1H-pyrazol-1-yl)benzamide]", "values": [{"measurement": "IC50", "setting": "JR251 or RBL cells", "value": "< 10", "unit": "µM"}]}, {"smiles": "COc1cc(C(=O)Nc2ccccc2Cl)ccc1-n1nc(C)cc1C(F)(F)F", "note": "[N-(2-chlorophenyl)-3-methoxy-4-(3-methyl-5-(trifluoromethyl)-1H-pyrazol-1-yl)benzamide]", "values": [{"measurement": "IC50", "setting": "JR251 or RBL cells", "value": "< 10", "unit": "µM"}]}, {"smiles": "Cc1cc(C(F)(F)F)nn1-c1ccc(C(=O)Nc2ccc(Cl)cc2)cc1N", "note": "[3-amino-N-(4-chlorophenyl)-4-(5-methyl-3-(trifluoromethyl)-1H-pyrazol-1-yl)benzamide]", "values": [{"measurement": "IC50", "setting": "JR251 or RBL cells", "value": "< 10", "unit": "µM"}]}, {"smiles": "Cc1cc(C(F)(F)F)n(-c2ccc(C(=O)Nc3ccccc3Cl)cc2N)n1", "note": "[3-amino-N-(2-chlorophenyl)-4-(3-methyl-5-(trifluoromethyl)-1H-pyrazol-1-yl)benzamide]", "values": [{"measurement": "IC50", "setting": "JR251 or RBL cells", "value": "< 10", "unit": "µM"}]}, {"smiles": "Cc1cc(-c2ccccc2)nn1-c1ccc(NC(=O)c2cccs2)cc1N", "note": "[N-(3-amino-4-(5-methyl-3-phenyl-1H-pyrazol-1-yl)phenyl)thiophene-2-carboxamide]", "values": [{"measurement": "IC50", "setting": "JR251 or RBL cells", "value": "< 10", "unit": "µM"}]}, {"smiles": "Cc1cc(-c2ccccc2)nn1-c1ccc(NC(=O)c2cccs2)cc1[N+](=O)[O-]", "note": "[N-(4-(5-methyl-3-phenyl-1H-pyrazol-1-yl)-3-nitrophenyl)thiophene-2-carboxamide]", "values": [{"measurement": "IC50", "setting": "JR251 or RBL cells", "value": "< 10", "unit": "µM"}]}, {"smiles": "COc1ccc(C(=O)Nc2ccc(-n3nc(C(F)(F)F)cc3C)c([N+](=O)[O-])c2)cc1", "note": "[4-methoxy-N-(4-(5-methyl-3-(trifluoromethyl)-1H-pyrazol-1-yl)-3-nitrophenyl)benzamide]", "values": [{"measurement": "IC50", "setting": "JR251 or RBL cells", "value": "< 10", "unit": "µM"}]}, {"smiles": "Cc1cc(C(F)(F)F)nn1-c1ccc(C(=O)Nc2ccccc2Cl)cc1N", "note": "[3-amino-N-(2-chlorophenyl)-4-(5-methyl-3-(trifluoromethyl)-1H-pyrazol-1-yl)benzamide]", "values": [{"measurement": "IC50", "setting": "JR251 or RBL cells", "value": "< 10", "unit": "µM"}]}, {"smiles": "Cc1cc(C(F)(F)F)n(-c2ccc(C(=O)Nc3ccccc3Cl)cc2[N+](=O)[O-])n1", "note": "[N-(2-chlorophenyl)-4-(3-methyl-5-(trifluoromethyl)-1H-pyrazol-1-yl)-3-nitrobenzamide]", "values": [{"measurement": "IC50", "setting": "JR251 or RBL cells", "value": "< 10", "unit": "µM"}]}, {"smiles": "COc1ccc(C(=O)Nc2ccc(-n3nc(C)cc3C(F)(F)F)c(N)c2)cc1", "note": "[N-(3-amino-4-(3-methyl-5-(trifluoromethyl)-1H-pyrazol-1-yl)phenyl)-4-methoxybenzamide]", "values": [{"measurement": "IC50", "setting": "JR251 or RBL cells", "value": "< 10", "unit": "µM"}]}, {"smiles": "Cc1cc(C(F)(F)F)nn1-c1ccc(C(=O)Nc2ccccc2Cl)cc1[N+](=O)[O-]", "note": "[N-(2-chlorophenyl)-4-(5-methyl-3-(trifluoromethyl)-1H-pyrazol-1-yl)-3-nitrobenzamide]", "values": [{"measurement": "IC50", "setting": "JR251 or RBL cells", "value": "< 10", "unit": "µM"}]}, {"smiles": "COc1ccc(C(=O)Nc2ccc(-n3nc(C(F)(F)F)cc3C)c(N)c2)cc1", "note": "[N-(3-amino-4-(5-methyl-3-(trifluoromethyl)-1H-pyrazol-1-yl)phenyl)-4-methoxybenzamide]", "values": [{"measurement": "IC50", "setting": "JR251 or RBL cells", "value": "< 10", "unit": "µM"}]}, {"smiles": "Cc1cc(C(F)(F)F)n(-c2ccc(NC(=O)c3ccc(Cl)cc3)cc2[N+](=O)[O-])n1", "note": "[4-Chloro-N-(4-(3-methyl-5-(trifluoromethyl)-1H-pyrazol-1-yl)-3-nitrophenyl)benzamide]", "values": [{"measurement": "IC50", "setting": "JR251 or RBL cells", "value": "< 10", "unit": "µM"}]}, {"smiles": "Cc1nnsc1C(=O)Nc1ccc(-n2nc(C(F)(F)F)cc2C(F)(F)F)cc1", "note": "[BTP-2]", "values": [{"measurement": "inhibition of proliferation", "setting": "[1]", "value": "inhibits"}, {"measurement": "inhibition of SOCE", "setting": "[2]", "value": "inhibits"}]}, {"smiles": "COc1ccc(C(=O)Nc2ccc(-n3nc(-c4ccccc4)cc3C)c(N)c2)cc1", "note": "[N-(3-amino-4-(5-methyl-3-phenyl-1H-pyrazol-1-yl)phenyl)-4-methoxybenzamide]", "values": [{"measurement": "IC50", "setting": "JR251 or RBL cells", "value": "< 10", "unit": "µM"}]}, {"smiles": "COc1cc(C(=O)Nc2ccccc2Cl)ccc1-n1nc(C(F)(F)F)cc1C", "note": "[N-(2-chlorophenyl)-3-methoxy-4-(5-methyl-3-(trifluoromethyl)-1H-pyrazol-1-yl)benzamide]", "values": [{"measurement": "IC50", "setting": "JR251 or RBL cells", "value": "< 10", "unit": "µM"}]}, {"smiles": "COc1ccc(C(=O)Nc2ccc(-n3nc(C)cc3C(F)(F)F)c([N+](=O)[O-])c2)cc1", "note": "[4-methoxy-N-(4-(3-methyl-5-(trifluoromethyl)-1H-pyrazol-1-yl)-3-nitrophenyl)benzamide]", "values": [{"measurement": "IC50", "setting": "JR251 or RBL cells", "value": "< 10", "unit": "µM"}]}, {"smiles": "NCCOB(c1ccccc1)c1ccccc1", "note": "[2-aminoethoxydiphenylborate]", "values": [{"measurement": "block of store-dependent Ca2+ entry", "setting": "[3]", "value": "completely blocked"}]}, {"smiles": "CCc1cc(CC)n(-c2ccc(NC(=O)c3ccc(Cl)cc3)cc2[N+](=O)[O-])n1", "note": "[4-chloro-N-(4-(3,5-diethyl-1H-pyrazol-1-yl)-3-nitrophenyl)benzamide]", "values": [{"measurement": "IC50", "setting": "JR251 or RBL cells", "value": "< 10", "unit": "µM"}]}]}
